Test [1] addresses T1, Bcl-2-related protein A1 (Mus musculus, UniProt Q07440).
T1 sequence (Q07440 whole entry): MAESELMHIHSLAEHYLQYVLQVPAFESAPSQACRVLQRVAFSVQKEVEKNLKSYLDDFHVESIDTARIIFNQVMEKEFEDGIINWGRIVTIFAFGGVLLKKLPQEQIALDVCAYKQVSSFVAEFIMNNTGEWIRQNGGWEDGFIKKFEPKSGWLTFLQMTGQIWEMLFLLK
The test is classed as functional.

Test [2] addresses T2, Ubiquitin-conjugating enzyme E2 N (Homo sapiens, UniProt P61088).
T2 sequence (P61088 whole entry): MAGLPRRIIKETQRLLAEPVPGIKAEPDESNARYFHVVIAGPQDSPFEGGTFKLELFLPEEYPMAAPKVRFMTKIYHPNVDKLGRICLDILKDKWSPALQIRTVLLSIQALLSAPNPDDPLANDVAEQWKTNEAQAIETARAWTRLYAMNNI
The test is classed as functional.

The target of test [3] is T2, Ubiquitin-conjugating enzyme E2 N. The test is classed as functional. This is another data set of the same source.
In test [4] the target is T3, Heat shock factor protein 1 (Mus musculus, UniProt P38532).
T3 sequence (P38532 whole entry): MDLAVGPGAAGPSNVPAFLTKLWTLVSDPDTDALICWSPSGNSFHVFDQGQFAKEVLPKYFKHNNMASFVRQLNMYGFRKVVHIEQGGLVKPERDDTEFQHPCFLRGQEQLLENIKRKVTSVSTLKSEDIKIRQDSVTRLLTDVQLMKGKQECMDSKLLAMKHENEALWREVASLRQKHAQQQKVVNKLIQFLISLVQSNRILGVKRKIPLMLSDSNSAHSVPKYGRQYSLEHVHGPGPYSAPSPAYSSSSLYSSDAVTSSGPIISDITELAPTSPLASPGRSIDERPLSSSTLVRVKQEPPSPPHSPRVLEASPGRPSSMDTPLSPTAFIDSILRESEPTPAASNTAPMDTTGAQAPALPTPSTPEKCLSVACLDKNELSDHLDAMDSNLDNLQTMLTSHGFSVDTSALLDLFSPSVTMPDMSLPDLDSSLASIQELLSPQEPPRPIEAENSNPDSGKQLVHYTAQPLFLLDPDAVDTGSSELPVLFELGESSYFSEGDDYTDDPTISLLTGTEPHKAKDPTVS
Description: HSF1 potentiators in luciferase reporter cells, confirmation, cell-based, NIH3T3, luminescence, dose retest (AID 435004).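 Also: stress induced by proteasome inhibitor MG132 added 30 min after compound; luciferase reporter driven by HSF1 response element in NIH3T3 cells; actives raise luminescence as potentiators of the MG132 stress response.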 The test is classed as functional. For orientation: In a reporter assay the amount or activity of a reporter protein is the signal.

Test [5] addresses T4, Short transient receptor potential channel 4 (Mus musculus, UniProt Q9QUQ5).
T4 sequence (Q9QUQ5 whole entry): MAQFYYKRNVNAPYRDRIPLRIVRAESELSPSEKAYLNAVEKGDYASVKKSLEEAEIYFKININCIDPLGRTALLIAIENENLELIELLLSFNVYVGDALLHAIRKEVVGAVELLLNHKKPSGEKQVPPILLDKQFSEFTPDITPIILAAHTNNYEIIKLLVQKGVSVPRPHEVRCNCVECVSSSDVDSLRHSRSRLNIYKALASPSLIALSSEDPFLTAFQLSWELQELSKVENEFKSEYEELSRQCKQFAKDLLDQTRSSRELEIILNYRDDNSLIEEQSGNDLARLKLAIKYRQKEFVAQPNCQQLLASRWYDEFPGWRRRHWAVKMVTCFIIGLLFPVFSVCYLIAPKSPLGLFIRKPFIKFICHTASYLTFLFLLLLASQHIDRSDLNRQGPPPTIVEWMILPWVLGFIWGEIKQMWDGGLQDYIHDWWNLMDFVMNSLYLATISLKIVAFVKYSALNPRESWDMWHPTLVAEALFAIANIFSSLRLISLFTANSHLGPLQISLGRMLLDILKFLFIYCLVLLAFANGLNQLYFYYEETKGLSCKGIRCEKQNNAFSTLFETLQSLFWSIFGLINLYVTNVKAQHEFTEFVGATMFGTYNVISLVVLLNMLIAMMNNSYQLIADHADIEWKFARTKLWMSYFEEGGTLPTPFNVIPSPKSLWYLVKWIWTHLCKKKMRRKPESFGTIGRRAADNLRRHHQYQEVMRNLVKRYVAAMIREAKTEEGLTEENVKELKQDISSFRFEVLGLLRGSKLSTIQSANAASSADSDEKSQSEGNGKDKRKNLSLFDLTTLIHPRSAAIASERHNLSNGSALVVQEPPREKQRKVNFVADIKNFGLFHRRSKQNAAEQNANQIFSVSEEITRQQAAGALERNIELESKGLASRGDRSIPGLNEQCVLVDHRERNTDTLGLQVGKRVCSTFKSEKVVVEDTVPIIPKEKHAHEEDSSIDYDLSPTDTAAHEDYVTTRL
The test can be described thus: mouse TRPC4 channel inhibitors, dose response, cell-based, HEK293 TRPC4/mu-opioid, Fluo-4 calcium (AID 434942).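 Also: potency of inhibitors blocking the TRPC4 calcium response.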 The test is classed as functional.

Test [6] concerns the target Cytochrome P450 2D6 (Homo sapiens, UniProt P10635).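 Also: CYP2D6 member of a cytochrome P450 panel assay.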
The target in test [7] is Cytochrome P450 3A4 (Homo sapiens, UniProt P08684).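 Also: CYP3A4 tested as one member of a cytochrome P450 panel screen.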
Chain of Cytochrome P450 3A4 (P08684 whole entry): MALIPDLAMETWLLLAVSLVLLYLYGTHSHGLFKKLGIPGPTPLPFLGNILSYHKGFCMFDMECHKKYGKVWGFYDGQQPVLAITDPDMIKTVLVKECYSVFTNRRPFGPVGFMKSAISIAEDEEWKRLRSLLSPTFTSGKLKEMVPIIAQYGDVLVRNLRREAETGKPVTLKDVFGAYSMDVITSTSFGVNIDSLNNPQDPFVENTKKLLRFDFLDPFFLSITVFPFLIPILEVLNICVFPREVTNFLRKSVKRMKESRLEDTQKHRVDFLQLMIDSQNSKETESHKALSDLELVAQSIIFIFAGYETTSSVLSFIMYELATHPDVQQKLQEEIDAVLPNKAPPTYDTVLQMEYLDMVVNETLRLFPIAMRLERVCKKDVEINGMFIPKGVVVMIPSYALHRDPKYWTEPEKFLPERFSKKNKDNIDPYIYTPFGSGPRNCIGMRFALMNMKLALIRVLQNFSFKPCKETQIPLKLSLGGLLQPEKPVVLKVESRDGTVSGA
For test [8], the target named is T5, RNA-binding protein pos-1 (Caenorhabditis elegans, UniProt G5EF15).
T5 sequence (G5EF15 whole entry): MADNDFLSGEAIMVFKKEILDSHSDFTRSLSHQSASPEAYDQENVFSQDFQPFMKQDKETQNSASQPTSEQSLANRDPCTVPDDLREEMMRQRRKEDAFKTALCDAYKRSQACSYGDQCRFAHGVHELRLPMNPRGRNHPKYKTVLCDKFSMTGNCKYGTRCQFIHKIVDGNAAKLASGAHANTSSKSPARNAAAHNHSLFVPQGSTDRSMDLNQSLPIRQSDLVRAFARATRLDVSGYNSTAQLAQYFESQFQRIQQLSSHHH
Description: inhibitors of POS-1/mex-3 RNA binding, dose response, biochemical, fluorescence polarization (AID 1964).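 Also: purified POS-1 fused to maltose binding protein made in E. coli; potency of compounds blocking POS-1 binding to fluorescent RNA.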 Background: Fluorescence polarisation rises when a labelled molecule tumbles more slowly, as on binding a larger partner.

Test [9] has as its target T6, SUMO-activating enzyme (Homo sapiens, UniProt Q9UBT2). Description: SUMOylation inhibitor hit validation, confirmation, SUMOylation inhibitor project, biochemical, AlphaScreen (AID 2018). The test is classed as functional. For orientation: In Alpha technology, singlet oxygen from a donor bead excites a nearby acceptor bead.
The target of test [10] is T7, Zinc finger protein mex-5 (Caenorhabditis elegans, UniProt Q9XUB2).
T7 sequence (Q9XUB2 whole entry): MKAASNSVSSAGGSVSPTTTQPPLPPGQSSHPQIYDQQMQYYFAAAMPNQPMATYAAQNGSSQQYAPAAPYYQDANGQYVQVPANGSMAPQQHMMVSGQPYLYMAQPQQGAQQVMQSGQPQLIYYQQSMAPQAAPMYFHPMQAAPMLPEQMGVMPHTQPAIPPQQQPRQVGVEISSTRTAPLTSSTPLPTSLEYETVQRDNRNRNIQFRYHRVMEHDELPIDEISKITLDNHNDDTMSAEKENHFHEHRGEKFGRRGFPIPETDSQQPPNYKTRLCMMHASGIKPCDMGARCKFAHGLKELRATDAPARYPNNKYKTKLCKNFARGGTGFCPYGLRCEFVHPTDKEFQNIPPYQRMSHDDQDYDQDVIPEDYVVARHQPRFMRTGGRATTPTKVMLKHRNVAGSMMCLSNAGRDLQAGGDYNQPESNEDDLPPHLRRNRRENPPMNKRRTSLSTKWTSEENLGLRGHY
Description: MEX-5/TCR-2 RNA interaction inhibitors, dose response, biochemical, C. elegans, fluorescence polarization (AID 1960).

Test [11] addresses T6, SUMO-activating enzyme. Description: inhibitors of in vitro SUMOylation cascade, primary screen, biochemical, HTRF, uHTS (AID 2006). The test is classed as protein-complex assay.
Test [12] concerns the target Induced myeloid leukemia cell differentiation protein Mcl-1 (Homo sapiens, UniProt Q07820). The test is classed as functional.
Test [13] has as its target Beta-galactosidase (Escherichia coli, UniProt Q8VNN2). The test can be described thus: PubChem AID 485352. The test is classed as functional.
Test [14] deals with T8, Type-1 angiotensin II receptor (Homo sapiens, UniProt P30556).
T8 sequence (P30556 whole entry): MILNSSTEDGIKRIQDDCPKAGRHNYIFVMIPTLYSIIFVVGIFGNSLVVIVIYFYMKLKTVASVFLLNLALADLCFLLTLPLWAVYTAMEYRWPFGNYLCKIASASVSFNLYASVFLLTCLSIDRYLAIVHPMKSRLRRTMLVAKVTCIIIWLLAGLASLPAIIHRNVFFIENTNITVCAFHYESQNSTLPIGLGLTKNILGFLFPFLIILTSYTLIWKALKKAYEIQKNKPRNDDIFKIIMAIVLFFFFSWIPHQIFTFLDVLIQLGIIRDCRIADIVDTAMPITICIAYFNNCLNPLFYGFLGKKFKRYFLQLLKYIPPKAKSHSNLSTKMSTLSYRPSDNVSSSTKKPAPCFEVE
Description: AT1 receptor antagonists, dose response, selectivity assay for APJ receptor antagonist project, cell-based, uHTS hits (AID 463214).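 Also: antagonist potency against angiotensin II stimulated AT1 response.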 The test is classed as functional.

In test [15] the test system is HEK293. The test can be described thus: cytotoxicity in HEK293T NF-kB-Luc cells, SAR follow-up, cytotoxicity control for NF-kB activator project, cell-based, resazurin fluorescence (AID 493251). The test is classed as functional. The conditions noted are these: Homo sapiens.
Test [16] deals with T9, Calpain-2 catalytic subunit (Sus scrofa, UniProt P43367).
T9 sequence (P43367 whole entry): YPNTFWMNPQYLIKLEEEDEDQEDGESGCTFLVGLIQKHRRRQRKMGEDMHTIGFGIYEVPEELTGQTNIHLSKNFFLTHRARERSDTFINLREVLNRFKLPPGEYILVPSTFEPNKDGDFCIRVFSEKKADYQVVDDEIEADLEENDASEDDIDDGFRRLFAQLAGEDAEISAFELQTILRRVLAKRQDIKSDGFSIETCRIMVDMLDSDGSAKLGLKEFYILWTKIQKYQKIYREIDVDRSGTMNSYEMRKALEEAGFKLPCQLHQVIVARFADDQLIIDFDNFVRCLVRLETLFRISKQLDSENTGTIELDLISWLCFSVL
Description: pig calpain II inhibitor potency, dose response, biochemical, fluorogenic peptide substrate (AID 1420). The test is classed as functional.

Calls of active or inactive are those of the source. Bounds are passed on as bounds.

Chain of Beta-galactosidase (Q8VNN2 whole entry): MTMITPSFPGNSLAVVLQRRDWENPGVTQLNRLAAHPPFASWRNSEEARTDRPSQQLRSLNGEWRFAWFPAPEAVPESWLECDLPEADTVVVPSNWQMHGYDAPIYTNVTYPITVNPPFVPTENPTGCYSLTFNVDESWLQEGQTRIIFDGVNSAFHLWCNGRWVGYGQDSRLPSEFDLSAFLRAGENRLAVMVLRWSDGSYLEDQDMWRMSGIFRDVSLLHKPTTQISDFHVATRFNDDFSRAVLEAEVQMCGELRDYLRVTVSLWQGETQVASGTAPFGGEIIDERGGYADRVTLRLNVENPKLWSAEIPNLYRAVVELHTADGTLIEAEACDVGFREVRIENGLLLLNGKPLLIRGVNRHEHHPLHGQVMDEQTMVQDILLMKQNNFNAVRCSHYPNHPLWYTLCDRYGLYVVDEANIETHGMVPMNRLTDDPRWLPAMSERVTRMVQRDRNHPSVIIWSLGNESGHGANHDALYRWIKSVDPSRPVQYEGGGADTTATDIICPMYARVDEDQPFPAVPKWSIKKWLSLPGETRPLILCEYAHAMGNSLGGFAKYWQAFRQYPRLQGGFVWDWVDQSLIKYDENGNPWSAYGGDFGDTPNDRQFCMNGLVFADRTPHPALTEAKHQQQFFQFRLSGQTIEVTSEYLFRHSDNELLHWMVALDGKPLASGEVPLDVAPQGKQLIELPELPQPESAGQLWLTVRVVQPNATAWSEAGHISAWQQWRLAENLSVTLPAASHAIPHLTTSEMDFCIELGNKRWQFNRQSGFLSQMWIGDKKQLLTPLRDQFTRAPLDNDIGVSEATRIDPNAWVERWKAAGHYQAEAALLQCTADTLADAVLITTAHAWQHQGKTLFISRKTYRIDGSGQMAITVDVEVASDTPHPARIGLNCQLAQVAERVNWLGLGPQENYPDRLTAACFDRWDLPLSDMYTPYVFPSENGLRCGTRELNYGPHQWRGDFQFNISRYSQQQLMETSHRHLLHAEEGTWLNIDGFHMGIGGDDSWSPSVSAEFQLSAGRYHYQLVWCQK
T6 sequence (Q9UBE0 whole entry): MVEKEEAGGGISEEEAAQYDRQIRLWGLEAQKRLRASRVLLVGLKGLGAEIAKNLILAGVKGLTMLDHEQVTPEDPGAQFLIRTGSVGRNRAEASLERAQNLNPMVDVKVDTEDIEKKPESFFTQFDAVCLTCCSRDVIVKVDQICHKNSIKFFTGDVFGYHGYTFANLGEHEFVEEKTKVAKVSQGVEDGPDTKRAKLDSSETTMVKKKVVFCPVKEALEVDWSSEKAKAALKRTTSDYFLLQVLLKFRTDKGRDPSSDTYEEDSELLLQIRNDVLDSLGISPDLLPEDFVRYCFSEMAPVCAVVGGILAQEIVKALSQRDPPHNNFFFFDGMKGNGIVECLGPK
T6 sequence (Q9UBT2 whole entry): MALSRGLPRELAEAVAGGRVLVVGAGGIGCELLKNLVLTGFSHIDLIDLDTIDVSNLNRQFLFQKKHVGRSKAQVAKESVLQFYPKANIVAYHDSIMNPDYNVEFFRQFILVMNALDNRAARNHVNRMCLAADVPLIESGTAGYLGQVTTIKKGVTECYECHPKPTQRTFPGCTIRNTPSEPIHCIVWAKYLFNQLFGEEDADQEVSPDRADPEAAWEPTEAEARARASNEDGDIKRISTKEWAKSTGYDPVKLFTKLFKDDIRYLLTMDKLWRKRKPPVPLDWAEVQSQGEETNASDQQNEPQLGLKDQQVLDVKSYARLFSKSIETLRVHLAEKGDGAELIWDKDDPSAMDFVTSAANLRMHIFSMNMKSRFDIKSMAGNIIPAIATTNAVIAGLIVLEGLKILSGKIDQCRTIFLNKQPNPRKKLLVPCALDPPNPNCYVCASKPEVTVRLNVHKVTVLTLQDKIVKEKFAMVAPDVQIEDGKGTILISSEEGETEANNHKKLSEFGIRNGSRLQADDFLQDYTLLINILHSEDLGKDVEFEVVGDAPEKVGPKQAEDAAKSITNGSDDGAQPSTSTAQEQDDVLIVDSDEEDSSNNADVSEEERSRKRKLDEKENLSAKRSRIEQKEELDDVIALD
Chain of Induced myeloid leukemia cell differentiation protein Mcl-1 (Q07820 whole entry): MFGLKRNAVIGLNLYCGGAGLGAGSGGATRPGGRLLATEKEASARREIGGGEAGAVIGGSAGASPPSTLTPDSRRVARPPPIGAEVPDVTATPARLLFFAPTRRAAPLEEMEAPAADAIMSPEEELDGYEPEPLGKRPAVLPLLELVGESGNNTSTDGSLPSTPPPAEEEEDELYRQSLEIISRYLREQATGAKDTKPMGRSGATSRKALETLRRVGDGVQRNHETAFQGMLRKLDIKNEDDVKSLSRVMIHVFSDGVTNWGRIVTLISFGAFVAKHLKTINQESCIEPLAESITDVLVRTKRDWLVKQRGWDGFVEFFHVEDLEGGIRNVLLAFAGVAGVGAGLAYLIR
Chain of Cytochrome P450 2D6 (P10635 whole entry): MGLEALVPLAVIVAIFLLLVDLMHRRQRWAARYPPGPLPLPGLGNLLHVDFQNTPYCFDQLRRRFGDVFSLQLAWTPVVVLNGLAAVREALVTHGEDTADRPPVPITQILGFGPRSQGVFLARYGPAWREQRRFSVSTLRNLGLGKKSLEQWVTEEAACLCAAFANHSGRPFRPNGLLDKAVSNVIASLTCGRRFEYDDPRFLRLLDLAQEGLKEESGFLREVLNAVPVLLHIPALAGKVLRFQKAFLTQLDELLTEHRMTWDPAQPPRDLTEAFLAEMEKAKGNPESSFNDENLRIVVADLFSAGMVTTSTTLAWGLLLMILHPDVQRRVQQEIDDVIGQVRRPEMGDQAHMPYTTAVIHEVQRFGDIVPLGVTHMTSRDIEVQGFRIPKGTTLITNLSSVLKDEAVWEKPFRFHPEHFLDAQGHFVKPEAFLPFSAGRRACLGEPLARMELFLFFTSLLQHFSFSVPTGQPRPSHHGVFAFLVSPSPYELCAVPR

What is called IC50 is the concentration that inhibits the measured activity by half. The EC50 is the concentration giving half of the maximal effect. On to `O=C(CSc1cc(Cl)ccc1Cl)NCC(=O)Nc1ccc(F)c(F)c1F`, for which the IC50 in test [1] is > 20 µM (inactive); in [2], 15.6 µM (active); in test [3], 18.8 µM (active). Moreover, the EC50 in [4] is > 260 µM (inactive).
In general, AC50 refers to the concentration giving half of the maximal activity seen. Regarding `CC(C)(C)c1cc2cccnc2n1Cc1ccccc1`, the EC50 in test [5] is 2.11 µM (active). In addition, the values for the AC50 in [6] and in test [7] were 0.501 µM (inconclusive) and 15.8 µM (inconclusive), respectively.
Regarding `CNC(=O)c1ccsc1NC(=O)C1CCCN1S(=O)(=O)c1cccs1` (stereo not given), the IC50 was > 20 µM (inactive) in test [1], 19.3 µM (active) in [2] and > 20 µM (inactive) in test [3].
Consider `CCOC(=O)c1c(C)c2c(n1C)CCC/C2=N\O`, for which the IC50 in [1] is > 20 µM (inactive); in test [2], 19.5 µM (active); in [3] it was 8.75 µM (active).
Consider `CC1=C(C#N)C(=O)NC(=O)/C1=C/c1ccc(-c2ccc(S(N)(=O)=O)cc2)o1`, for which the EC50 in [8] was > 300 µM (inconclusive); in [10], > 300 µM (not active). Also, the IC50 in [9] was 6.48 µM (active); in [11] it was 25.7 µM (active); in test [12], 1.59 µM (active).
Take `CC(=O)Nc1ccc(NC(=O)CCC(=O)OCC(=O)c2cccc([N+](=O)[O-])c2)cc1`: in test [13], the EC50 was > 40 µM (inactive). Moreover, the IC50 in [14] is reported as 26 µM (not active).
For `O=C(Nc1nnc(SCc2ccc(F)cc2)s1)c1cnccn1` the same measures were > 40 µM (inactive) and > 40 µM (not active).
For `CC(C)(C)c1ccc(-c2noc(CCC(=O)O)n2)cc1`, the IC50 in [15] was > 80 µM (inactive).
Regarding `COc1cccc(O)c1CN1CCCC(C(=O)c2cccc(C(F)(F)F)c2)C1` (stereo not given), the IC50 in test [16] is on record as 11.5 µM (not active). The EC50 in test [5] was 2.11 µM (active).
